Values quoted from earlier work, collected in US20260069581A1, “METHODS AND COMPOSITIONS FOR CANCER THERAPY” (OHIO STATE INNOVATION FOUNDATION, priority 2020, published 2026).

What was measured:
Rad51 = details: Ref. 33; cited from earlier work
[1] = tested on: cell lines derived from T-cell lymphomas or leukemias; details: Ref. 25, cited from earlier work
tubulin acetylation = details: concentration as high as 50 μM, Ref. 25; cited from earlier work
AML = details: low micromolar doses, Ref. 25; cited from earlier work
[2] = tested on: prostate cancer and lung adenocarcinoma cells; details: Ref. 32; cited from earlier work

For `CN(C)Cc1c(C(=O)NCCOc2ccc(C(=O)NO)cc2)oc2ccccc12` [PCI-2481], the Rad51 expression (Rad51) is given as “reduction of Rad51 expression”.
In the case of `COc1ccc(Cn2ccc3ccc(C(=O)NO)cc32)cc1` [PCI-34051], the apoptosis [1] is given as “induces caspase-dependent apoptosis”, the GI50 ([1]; cell lines derived from T-cell lymphomas or leukemias) is given as 2.4 to 4 µM and the tubulin acetylation (tubulin acetylation) is given as “did not induce significant tubulin acetylation”. The AML death (AML) was “failed to induce AML death”.
For `O=C(CCCCCCC(=O)Nc1ccccc1)NO` [vorinostat], the “Rad50 and MRE11 protein levels” value [2] is given as “downregulates”.
